Measured values reported in patent US8895559B2, “Quinoxalines derivatives and pharmaceutical compositions and kits” (Merck Patent GmbH, priority 2010, dated 2014).

Test system: PI3K
Experiment: Cellular testing of PI3K inhibitors: P-S473-PKB Luminex assay in PC3 cells
Assay type: cell-based
Description: Description of the Method for the Cellular Testing of PI3K Inhibitors
The cellular assay for determination of the P-S473-PKB level is carried out as a Luminex assay in 96-well format in PC3 cells.
PC3 cells are sown out with 20,000 cells per well in 100 μl medium (45% RPMI1460/45% Ham's F12/10% FCS) and incubated on the following day for 30 min with a serial dilution of the test substance (7 concentrations) under serum-free conditions. […] The lysates are incubated overnight at 4° C. with shaking with Luminex beads to which an anti-total PKB antibody is coupled. The detection is carried out on the following day by addition of a P-S473-PKB antibody and a species-specific PE-labelled secondary antibody. The detection of P-S473-PKB is carried out by measurement in a Luminex 100 instrument by determination of 100 events per cavity in a measurement time of 60 sec. […] The values of the preparations treated with test substance are calculated from this as percent of control, and IC50 values are determined by means of RS1.

[1] = PI3K-dependent phosphorylation of PKB at Serin 473 in PC3 cells

Structure (SMILES) | IC50 (PI3 kinase inhibition, cell) | IC50 [1]
CCc1c(Nc2nc3ccccc3nc2NS(=O)(=O)c2ccc(C(=O)N(C)C)cc2)cc(OC)cc1OC [Compound A13] | 100 to 10000 nM | –
COc1cc(Nc2nc3ccccc3nc2NS(=O)(=O)c2ccc(C(=O)NCC(F)F)cc2)c(OCCCO)c(OC)c1 [Compound A93] | 100 to 10000 nM | –
COc1cc(Nc2nc3ccccc3nc2NS(=O)(=O)c2ccc(C(=O)N(C)C)cc2)c(OCCOCCO)c(OC)c1 [Compound A69] | 100 to 10000 nM | –
COc1cc(Nc2nc3ccccc3nc2NS(=O)(=O)c2ccn(C(F)(F)C(=O)N(C)C)n2)c(OCCCO)c(OC)c1 [Compound A119] | 100 to 10000 nM | –
CCc1cc(OC)cc(Nc2nc3ccccc3nc2NS(=O)(=O)c2cn(C)cn2)c1OC [Compound A17] | > 10000 nM | –
COc1cc(Nc2nc3ccccc3nc2NS(=O)(=O)c2cn(C)cn2)c2c(c1)OCO2 [Compound A1] | 100 to 10000 nM | –
COc1cc(Nc2nc3ccccc3nc2NS(=O)(=O)c2ccc(C#N)s2)c(OCCOCCO)c(OC)c1 [Compound A59] | 1 to 100 nM | –
COc1cc(Nc2nc3ccccc3nc2NS(=O)(=O)c2cn(C)cn2)c(OCCN2CCOCC2)c(OC)c1 [Compound A54] | 100 to 10000 nM | –
COc1cc(Nc2nc3ccccc3nc2NS(=O)(=O)c2ccc(CNC(C)=O)cc2)c(OCCCO)c(OC)c1 [Compound A132, N-(4-{3-[2-(3-hydroxypropoxy)-3,5-dimethoxyphenylamino]quinoxalin-2-ylsulfamoyl}benzyl)acetamide] | 1 to 100 nM | –
COc1cc(Nc2nc3ccccc3nc2NS(=O)(=O)c2cn(C)c(CN(C)C)n2)c(CCCCO)c(OC)c1 [Compound A94] | 100 to 10000 nM | –
COc1cc(C)c(OC)c(Nc2nc3ccccc3nc2NS(=O)(=O)c2ccc(C(=O)N(C)C)cc2)c1 [Compound A12] | 100 to 10000 nM | –
COc1cc(Nc2nc3ccccc3nc2NS(=O)(=O)c2ccn(C)n2)c(CCCCO)c(OC)c1 [Compound A117] | 1 to 100 nM | –
COc1cc(Nc2nc3ccccc3nc2NS(=O)(=O)c2ccn(CCN(C)C)n2)c(OCCC(C)O)c(OC)c1 (stereo not shown) [Compound A129, 1-(2-Dimethylaminoethyl)-1H-pyrazole-3-sulfonic acid {3-[2-(3-hydroxybutoxy)-3,5-dimethoxy-phenylamino]quinoxalin-2-yl} amide] | 1 to 100 nM | –
COc1cc(Nc2nc3ccccc3nc2NS(=O)(=O)c2cccc(C#N)c2)c(OCCOCCO)c(OC)c1 [Compound A63] | 100 to 10000 nM | –
COc1cc(Nc2nc3ccccc3nc2NS(=O)(=O)c2ccn(C(F)(F)C(=O)N(C)C)n2)c(OCCC(C)O)c(OC)c1 (stereo not shown) [Compound A118, 2,2-difluoro-2-(3-{3-[2-(3-hydroxybutoxy)-3,5-dimethoxy-phenylamino]-quinoxalin-2-ylsulfamoyl}pyrazol-1-yl)-N,N-dimethylacetamide] | 100 to 10000 nM | –
COc1cc(Nc2nc3ccccc3nc2NS(=O)(=O)c2cn(C)c(CN(C)C)n2)c(OC)c(OC)c1 [Compound A31] | 100 to 10000 nM | –
COc1cc(Nc2nc3ccccc3nc2NS(=O)(=O)c2ccc(C#N)cc2)c(CCCN2CCS(=O)(=O)CC2)c(OC)c1 [Compound A3] | 1 to 100 nM | –
COc1cc(Nc2nc3ccccc3nc2NS(=O)(=O)c2ccc(CN3CC(F)(F)C3)cc2)c(OCCCO)c(OC)c1 [Compound A110, 4-(3,3-Difluoroazetidin-1-ylmethyl)-N-{3-[2-(3-hydroxypropoxy)-3,5-dimethoxyphenylamino]-quinoxalin-2-yl}benzenesulfonamide] | 1 to 100 nM | –
COc1cc(Nc2nc3ccccc3nc2NS(=O)(=O)c2ccc(C#N)cc2)c(OCCN(C)CCO)c(OC)c1 [Compound A78] | 1 to 100 nM | –
COc1cc(Nc2nc3ccccc3nc2NS(=O)(=O)c2ccc(C#N)cc2)c(OCCOCCO)c(OC)c1 [Compound A80] | 1 to 100 nM | –
COc1cc(Nc2nc3ccccc3nc2NS(=O)(=O)c2cn(C)cn2)c2oc(C(=O)N(C)C)cc2c1 [Compound A9] | 100 to 10000 nM | –
COc1cc(Nc2nc3ccccc3nc2NS(=O)(=O)c2cccc(C(=O)NCC(F)(F)F)c2)c(OCCCO)c(OC)c1 [Compound A105] | 100 to 10000 nM | –
COc1cc(Nc2nc3ccccc3nc2NS(=O)(=O)c2ccc(C(=O)N(C)C)cc2)c(OC)c(OC)c1 [Compound A90] | 100 to 10000 nM | –
COc1cc(Nc2nc3ccccc3nc2NS(=O)(=O)c2ccc(C(=O)N3CC(F)(F)C3)cc2)c(OCCCO)c(OC)c1 [Compound A98] | 100 to 10000 nM | –
COc1cc(Nc2nc3ccccc3nc2NS(=O)(=O)c2cn(C)cn2)c2c(c1)OC(CO)CO2 (stereo not shown) [Compound A124] | 100 to 10000 nM | –
COc1cc(Nc2nc3ccccc3nc2NS(=O)(=O)c2ccc(C(=O)NCC(F)(F)F)cc2)c(OCCCO)c(OC)c1 [Compound A95] | 100 to 10000 nM | –

Second part, the compound after the results:

IC50 (PI3 kinase inhibition, cell) | IC50 [1] | Structure (SMILES)
1 to 100 nM | – | COc1cc(Nc2nc3ccccc3nc2NS(=O)(=O)c2cncs2)c(OCCC(C)O)c(OC)c1 (stereo not shown) [Compound A101]
– | 96 nM | COc1cc(Nc2nc3ccccc3nc2NS(=O)(=O)c2cn(C)cn2)c(OCCCO)c(OC)c1 [drawing 163]
100 to 10000 nM | – | COc1cc(Nc2nc3ccccc3nc2NS(=O)(=O)c2ccn(C)n2)c(OCCOCCO)c(OC)c1 [Compound A112]
1 to 100 nM | – | COc1cc(Nc2nc3ccccc3nc2NS(=O)(=O)c2ccc(NC(C)=O)cc2)c(OCCCO)c(OC)c1 [Compound A50]
100 to 10000 nM | – | COc1cc(Nc2nc3ccccc3nc2NS(=O)(=O)c2cccnc2)c(OCCCO)c(OC)c1 [Compound A79]
100 to 10000 nM | – | COc1cc(Nc2nc3ccccc3nc2NS(=O)(=O)c2cnn(CCN(C)C)c2)c(OCCCO)c(OC)c1 [Compound A23, 1-(2-Dimethylamino-ethyl)-1H-pyrazole-4-sulfonic acid {3-[2-(3-hydroxypropoxy)-3,5-dimethoxy-phenylamino]quinoxalin-2-yl} amide]
1 to 100 nM | – | COc1cc(Nc2nc3ccccc3nc2NS(=O)(=O)c2cnn(C(F)F)c2)c(OCCCO)c(OC)c1 [Compound A29]
1 to 100 nM | – | COc1cc(Nc2nc3ccccc3nc2NS(=O)(=O)C(F)F)c(OCCC(C)O)c(OC)c1 (stereo not shown) [Compound A115]
1 to 100 nM | – | COc1cc(Nc2nc3ccccc3nc2NS(=O)(=O)c2ccc(C#N)s2)c(OCCS(C)(=O)=O)c(OC)c1 [Compound A41]
1 to 100 nM | – | COc1cc(Nc2nc3ccccc3nc2NS(C)(=O)=O)c(OCCC(C)O)c(OC)c1 (stereo not shown) [Compound A99]
1 to 100 nM | – | COc1cc(Nc2nc3ccccc3nc2NS(=O)(=O)C2CCS(=O)(=O)C2)c(OCCCO)c(OC)c1 (stereo not shown) [Compound A35]
– | 53 nM | COc1cc(Nc2nc3ccccc3nc2NS(=O)(=O)C2CCS(=O)(=O)C2)c(OCCCO)c(OC)c1 (stereo not shown) [drawing 157]
100 to 10000 nM | – | COc1cc(Nc2nc3ccccc3nc2NS(=O)(=O)c2cccnc2)c(OCCN(C)CCO)c(OC)c1 [Compound A68]
1 to 100 nM | – | COc1cc(Nc2nc3ccccc3nc2NS(=O)(=O)c2cncs2)c(OCCCO)c(OC)c1 [Compound A22]
1 to 100 nM | – | COc1cc(Nc2nc3ccccc3nc2NS(=O)(=O)c2cnn(C(F)F)c2)c(OCCC(C)O)c(OC)c1 (stereo not shown) [Compound A103]
– | 86 nM | COc1cc(Nc2nc3ccccc3nc2NS(=O)(=O)c2cn(C)cn2)c(OCCS(C)(=O)=O)c(OC)c1 [drawing 161]

IC50 (PI3 kinase inhibition, cell) | IC50 [1] | Structure (SMILES)
1 to 100 nM | – | COc1cc(Nc2nc3ccccc3nc2NS(=O)(=O)C(F)(F)F)c(OC)c(OC)c1 [Compound A40]
1 to 100 nM | – | COc1cc(Nc2nc3ccccc3nc2NS(=O)(=O)C(F)(F)F)c(OCCCO)c(OC)c1 [Compound A39]
1 to 100 nM | – | COc1cc(Nc2nc3ccccc3nc2NS(=O)(=O)c2cn(C)cn2)c(OCCC(C)O)c(OC)c1 (stereo not shown) [Compound A42]
1 to 100 nM | – | COc1cc(Nc2nc3ccccc3nc2NS(=O)(=O)c2cn(C)cn2)c(OCCS(C)(=O)=O)c(OC)c1 [Compound A55]
100 to 10000 nM | – | COc1cc(Nc2nc3ccccc3nc2NS(=O)(=O)c2cn(C)cn2)c(OCCOCCO)c(OC)c1 [Compound A81]
1 to 100 nM | – | COc1cc(Nc2nc3ccccc3nc2NS(=O)(=O)c2ccccc2)c(OCCOCCO)c(OC)c1 [Compound A58]
100 to 10000 nM | – | COc1cc(Nc2nc3ccccc3nc2NS(=O)(=O)c2cccnc2)c(OCCOCCO)c(OC)c1 [Compound A65]
1 to 100 nM | – | COc1cc(Nc2nc3ccccc3nc2NS(=O)(=O)C(F)(F)F)c(OCCOCCO)c(OC)c1 [Compound A49]
1 to 100 nM | – | COc1cc(Nc2nc3ccccc3nc2NS(=O)(=O)c2ccn(C)n2)c(OC)c(OC)c1 [Compound A121]
100 to 10000 nM | – | COc1cc(Nc2nc3ccccc3nc2NS(=O)(=O)c2cn(C)c(CN(C)C)n2)c(OCCCO)c(OC)c1 [Compound A33]
1 to 100 nM | – | COc1cc(Nc2nc3ccccc3nc2NS(=O)(=O)c2ccc(F)cc2)c(OCCOCCO)c(OC)c1 [Compound A53]
> 10000 nM | – | COc1cc(Nc2nc3ccccc3nc2NS(=O)(=O)c2ccncc2)c(OCCCO)c(OC)c1 [Compound A21]
1 to 100 nM | – | COc1cc(Nc2nc3ccccc3nc2NS(=O)(=O)c2cccc(CN(C)C)c2)c(OCCCO)c(OC)c1 [Compound A109, 3-Dimethylaminomethyl-N-{3-[2-(3-hydroxy-propoxy)-3,5-dimethoxyphenylamino]quinoxalin-2-yl}benzenesulfonamide]
1 to 100 nM | – | COc1cc(Nc2nc3ccccc3nc2NS(=O)(=O)c2cccs2)c(OCCOCCO)c(OC)c1 [Compound A64]
1 to 100 nM | – | COc1cc(Nc2nc3ccccc3nc2NS(=O)(=O)c2ccc(CN(C)C)cc2)c(OCCCO)c(OC)c1 [Compound A38, 4-dimethylaminomethyl-N-{3-[2-(3-hydroxypropoxy)-3,5-dimethoxyphenylamino]quinoxalin-2-yl}benzenesulfonamide]
100 to 10000 nM | – | COc1cc(Nc2nc3ccccc3nc2NS(=O)(=O)c2cn(C)cn2)c(OCC[S+](C)[O-])c(OC)c1 (stereo not shown) [Compound A52]
